Holding throughout (format): biochemical
Experiment [1] deals with T1, JAK1 (Homo sapiens, UniProt P23458).
T1 construct: GST-fusions of the active kinase domains (GST-JAK1 (866-1154)); host or cells: insect cells
Briefly: Enzymatic JAK assay (Caliper mobility shift), JAK1. The conditions noted are these: GST-JAK1 (866-1154) kinase domain, 16 nM enzyme, 70 μM ATP (KmATP), 30° C., 60 minutes. The procedure:
(§1) Enzymatic JAK assays. For enzyme assays affinity-purified GST-fusions of the active kinase domains (GST-JAK1 (866-1154), GST-JAK2 (808-1132), GST-JAK3 (811-1124), and GST-TYK2(888-1187) were expressed in insect cells or purchased from Invitrogen (Carlsbad, USA). All assays were performed in 384-well microtiter plates with 8-point serial dilutions of compounds. The kinase reactions were started by stepwise addition of 4.5 μl per well of a 2× peptide/ATP-solution and 4.5 μl per well of a 2× enzyme solution. The final ATP concentration used in the assays corresponds to the individually determined KmATP for the respective enzyme. Assay buffer: 50 mM HEPES, pH 7.5, 1 mM DTT, 0.02% Tween20, 0.02% BSA, 0.6% DMSO, 10 mM beta-glycerophosphate, and 10 μM sodium orthovanadate. Other components were adjusted specifically for the respective kinase assays: JAK1: 16 nM enzyme, 70 μM ATP, 2 μM peptide substrate, 12 mM MgCl2. JAK2: 1.8 nM enzyme, 20 μM ATP, 2 μM peptide substrate, 9 mM MgCl2. JAK3: 13 nM enzyme, 18 μM ATP, 2 μM peptide substrate, 1.5 mM MgCl2. Tyk2: 3.5 nM enzyme, 35 μM ATP, 2 μM peptide substrate, 9 mM MgCl2. […] Phosphorylated and unphosphorylated peptides were separated using the Caliper microfluidic mobility shift technology on a Caliper LC3000 workstation and kinase activities were calculated from the amounts of formed phospho-peptide.

In experiment [2] the target is T2, JAK2 (Homo sapiens, UniProt O60674).
T2 construct: GST-JAK2 (808-1132); host or cells: insect cells
T2 sequence (O60674 808-1132): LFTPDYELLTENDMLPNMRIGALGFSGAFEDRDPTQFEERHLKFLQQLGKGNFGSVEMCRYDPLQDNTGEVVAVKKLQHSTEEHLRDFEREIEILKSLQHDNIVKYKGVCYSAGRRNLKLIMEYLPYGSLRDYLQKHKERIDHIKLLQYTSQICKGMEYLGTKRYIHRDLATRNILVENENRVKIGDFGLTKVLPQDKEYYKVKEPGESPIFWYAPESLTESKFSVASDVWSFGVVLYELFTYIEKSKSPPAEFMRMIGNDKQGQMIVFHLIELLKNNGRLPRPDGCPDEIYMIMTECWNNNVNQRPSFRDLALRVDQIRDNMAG
Briefly: Enzymatic JAK assay (Caliper mobility shift), JAK2. The conditions noted are these: GST-JAK2 (808-1132) kinase domain, 1.8 nM enzyme, 20 μM ATP (KmATP), 30° C., 60 minutes. The procedure: as §1

Experiment [3] concerns the target T3, JAK3 (Homo sapiens, UniProt P52333).
T3 construct: GST-JAK3 (811-1124); host or cells: insect cells
The experiment in a line: Enzymatic JAK assay (Caliper mobility shift), JAK3. The conditions noted are these: GST-JAK3 (811-1124) kinase domain, 13 nM enzyme, 18 μM ATP (KmATP), 30° C., 60 minutes. The procedure: as §1

Experiment [4] concerns the target T4, Tyk2 (Homo sapiens, UniProt P29597).
T4 construct: GST-TYK2(888-1187); host or cells: insect cells
T4 sequence (P29597 888-1187): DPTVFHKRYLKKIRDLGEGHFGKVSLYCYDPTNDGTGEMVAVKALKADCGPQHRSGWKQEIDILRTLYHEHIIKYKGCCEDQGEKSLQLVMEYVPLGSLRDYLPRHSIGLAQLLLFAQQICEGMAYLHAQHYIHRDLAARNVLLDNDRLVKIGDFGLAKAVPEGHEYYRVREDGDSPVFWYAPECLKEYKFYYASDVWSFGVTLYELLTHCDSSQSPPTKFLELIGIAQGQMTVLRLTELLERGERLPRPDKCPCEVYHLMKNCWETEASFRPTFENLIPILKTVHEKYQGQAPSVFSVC
Briefly: Enzymatic JAK assay (Caliper mobility shift), Tyk2. To be noted: GST-TYK2(888-1187) kinase domain, 3.5 nM enzyme, 35 μM ATP (KmATP), 30° C., 60 minutes. The procedure: as §1

A word on the IC50: it is the concentration at which inhibition is half-maximal.

T3 sequence (P52333 811-1124): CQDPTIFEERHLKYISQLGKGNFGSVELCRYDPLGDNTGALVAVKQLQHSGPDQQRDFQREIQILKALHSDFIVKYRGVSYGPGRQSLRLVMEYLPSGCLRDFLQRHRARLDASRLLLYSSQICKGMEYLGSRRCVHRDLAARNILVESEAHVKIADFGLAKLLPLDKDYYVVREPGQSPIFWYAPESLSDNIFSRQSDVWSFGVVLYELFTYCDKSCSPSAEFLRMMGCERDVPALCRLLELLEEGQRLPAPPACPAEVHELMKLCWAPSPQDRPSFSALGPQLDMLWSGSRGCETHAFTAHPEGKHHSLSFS
T1 sequence (P23458 866-1154): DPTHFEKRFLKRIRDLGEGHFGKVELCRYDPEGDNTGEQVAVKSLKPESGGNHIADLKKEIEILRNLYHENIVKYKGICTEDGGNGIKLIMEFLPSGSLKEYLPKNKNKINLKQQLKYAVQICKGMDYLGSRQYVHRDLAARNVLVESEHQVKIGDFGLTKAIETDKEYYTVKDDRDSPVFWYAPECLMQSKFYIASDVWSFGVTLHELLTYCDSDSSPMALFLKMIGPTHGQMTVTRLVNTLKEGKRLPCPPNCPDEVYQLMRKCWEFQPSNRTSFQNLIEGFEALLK

Take `NC(=O)c1cnc(Nc2ccccn2)cc1Nc1ccccc1Cl` [Example 1, 4-((2-chlorophenyl)amino)-6-(pyridin-2-ylamino)nicotinamide]: the half-maximal inhibitory concentration (IC50) in experiment [1] is 18 nM; in experiment [2] it was 14 nM; in experiment [3] it was 9 nM; in experiment [4], 14 nM.
Turning to `Cc1cccc(Nc2cc(Nc3ccccc3Cl)c(C(N)=O)cn2)n1` [Example 2, 4-((2-chlorophenyl)amino)-6-((6-methylpyridin-2-yl)amino)nicotinamide], the IC50 was 12 nM in experiment [1], 25 nM in experiment [2], 15 nM in experiment [3] and 24 nM in experiment [4].

The record behind these values is patent publication US10570096B2, “Diamino pyridine derivatives” (NOVARTIS AG, priority 2015, dated 2020).
